Experimental data from patent US8546340B2, “Soothing pharmaceutical or cosmetic composition comprising a peptide that activates HMG-CoA reductase” (ISP Investments Inc., priority 2008, dated 2013).
No end group written: not given here.

How the values were obtained:
HMG-CoA reductase = experiment: Expression of HMG-CoA reductase in normal human keratinocytes (immunofluorescence); assay type: cell-based; conditions: peptide 0.5 ppm (1% of 50 ppm stock), 24 or 48 hours
Procedure: Protocol: Normal human keratinocytes in culture are treated with a 1% stock solution at 50 ppm of peptide SEQ ID No. 5 for 24 or 48 hours (the medium in the presence of the active ingredient is changed every 24 hours). The cells are then washed and fixed in cold methanol for 4 minutes at 4° C. The cells are incubated in the presence of a polyclonal rabbit antibody specific for HMG-CoA reductase (Millipore, Upstate), and then a secondary antibody coupled with a fluorescent dye. The cells are then examined by epifluorescence microscope (Nikon Eclipse E600 microscope).

interleukin-1 alpha = experiment: Ex vivo IL-1 alpha secretion by human skin biopsies (ELISA); assay type: cell-based; conditions: peptide 0.5 ppm 24 h, vs controls untreated by the peptide
Procedure: Protocol: 5 mm-diameter biopsies of human skin are maintained in culture at the air-liquid interface in the presence of standard culture medium. The samples are treated with a 1% dilution of a solution at 50 ppm of peptide SEQ ID No. 5 for 24 hours, and then irradiated by UVB radiation (200 mJ/cm^2) and put back in culture for 24 hours, or subjected to contact with SDS at 2.5% for 24 hours in the presence of the same concentration of peptide SEQ ID No. 5. Controls untreated by the peptide are carried out under the same conditions. At the end of the experiment, the quantity of interleukin-1 alpha salted out in the culture medium is assayed by the ELISA technique.

expression of HMG-CoA reductase (cytoplasmic fluorescence, microscopic observation) (HMG-CoA reductase): more intense cytoplasmic fluorescence
Substance: Ala-Gly-Glu-Leu-Ser-NH2 (AGELS-NH2) [Peptide SEQ ID No. 5]
reduction of quantity of IL-1 alpha salted out in culture medium (interleukin-1 alpha; SDS 2.5% for 24 hours with peptide): 58% | reduction of quantity of IL-1 alpha salted out in culture medium (interleukin-1 alpha; UVB 200 mJ/cm^2, then 24 h culture): 40%
